Target: T1, hCB1 (Homo sapiens, UniProt P21554)
T1 construct: made in house; host or cells: Sf9 insect cells (baculovirus), P2 membranes
Experiment: Agonist-induced GTP binding (GTPγ35S) assay at CB1, Example 8
Type: biochemical
Details: IC50 at CB1, determined as described in Example 8; read-out: IC50
Procedure, shortened: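 Membranes from Sf9 cells co-expressing hCB1 and heterotrimeric G-protein (10 μg protein) in Tris pH 7.4 buffer with 5 μM GDP. Test compounds (10^−10–10^−5 M) competed against 1 nM CP55,940 with […] GTPγ35S, 60 min at room temperature. Filter-bound radioactivity by scintillation, expressed as percent above basal.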

T1 sequence (P21554 whole entry): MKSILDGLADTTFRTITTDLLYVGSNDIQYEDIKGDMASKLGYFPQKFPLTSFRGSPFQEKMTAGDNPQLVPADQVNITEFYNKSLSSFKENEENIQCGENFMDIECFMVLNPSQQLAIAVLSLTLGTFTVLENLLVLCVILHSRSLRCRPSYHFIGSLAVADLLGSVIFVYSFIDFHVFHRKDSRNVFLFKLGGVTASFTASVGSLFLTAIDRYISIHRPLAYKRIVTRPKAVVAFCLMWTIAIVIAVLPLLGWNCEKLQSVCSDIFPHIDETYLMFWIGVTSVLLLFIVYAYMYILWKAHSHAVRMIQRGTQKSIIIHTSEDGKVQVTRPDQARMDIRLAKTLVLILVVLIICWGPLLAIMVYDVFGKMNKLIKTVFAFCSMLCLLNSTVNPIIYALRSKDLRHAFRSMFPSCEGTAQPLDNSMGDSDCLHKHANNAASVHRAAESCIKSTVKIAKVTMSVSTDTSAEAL

IC50, < 2000 nM:
N#CCc1ccc(NC(=O)Nc2cccc(Cl)c2)cc1 [Compound 484, 1-(3-chlorophenyl)-3-[4-(cyanomethyl)phenyl]urea]
N#CCc1ccc(NC(=O)Nc2ccc(Cl)cc2)cc1 [Compound 485, 1-(4-chlorophenyl)-3-[4-(cyanomethyl)phenyl]urea]
CCc1ccc(NC(=O)Nc2ccc(C)cn2)cc1 [Compound 641, 1-(4-ethylphenyl)-3-(5-methylpyridin-2-yl)urea]
CCc1cccc(NC(=O)Nc2ccc(C(C)=O)cc2)c1 [Compound 341, 1-(4-acetylphenyl)-3-(3-ethylphenyl)urea]
O=C(Nc1ccc(Cn2ccnc2)cc1)Nc1ccc(OC(F)F)cc1 [Compound 786, N-[4-(difluoromethoxy)phenyl]-N′-[4-(1H-irnidazol-1-ylmethyl)phenyl]urea]
COC(=O)c1ccc(NC(=O)Nc2ccc(CC#N)cc2)cc1 [Compound 713, methyl 4-[({[4-(cyanomethyl)phenyl]amino}carbonyl)amino]benzoate]
COC(=O)c1cccc(NC(=O)Nc2cccc(OC(F)F)c2)c1 [Compound 676, methyl 3-[({[3-(difluoromethoxy)phenyl]amino}carbonyl)amino]benzoate]
CC(=O)c1ccc(NC(=O)Nc2ccc(C)c(F)c2)cc1 [Compound 450, 1-(4-acetylphenyl)-3-(3-fluoro-4-methylphenyl)urea]
Cc1ccc(NC(=O)Nc2ccc(OC(F)F)cc2)cc1Cl [Compound 611, 1-(3-chloro-4-methylphenyl)-3-[4-(difluoromethoxy)phenyl]urea]
Cc1cccc(NC(=O)Nc2ccc(OCC#N)cc2)c1 [Compound 464, 1-[4-(cyanomethoxy)phenyl]-3-(3-methylphenyl)urea]
CCOC(=O)c1ccc(NC(=O)Nc2ccc(OCC(C)O)cc2)cc1 (stereo not drawn) [Compound 758, ethyl 4-[({[4-(2-hydroxypropoxy)phenyl]amino}carbonyl)amino] benzoate]
Cc1ccc(NC(=O)Nc2ccc(C(C)C)cc2)cc1F [Compound 626, 1-(3-fluoro-4-methylphenyl)-3-(4-isopropylphenyl)urea]
CCC(=O)c1ccc(NC(=O)Nc2cccc(CC)c2)cc1 [Compound 491, 1-(3-ethylphenyl)-3-(4-propionylphenyl)urea]
CC(C)(C)c1ccccc1NC(=O)Nc1ccc(OC(F)F)cc1 [Compound 604, 1-(2-tert-butylphenyl)-3-[4-(difluoromethoxy)phenyl]urea]
CCOC(=O)c1ccc(NC(=O)Nc2ccc(C(C)C)cc2)cc1 [Compound 602, ethyl 4-({[(4-isopropylphenyl)amino]carbonyl}amino)benzoate]
Cc1ccc(NC(=O)Nc2ccc(Cl)nc2)cc1C [Compound 780, 1-(6-chloropyridin-3-yl)-3-(3,4-dimethylphenyl)urea]
CCc1cccc(NC(=O)Nc2ccc(OC(C)C)cc2)c1 [Compound 402, 1-(3-ethylphenyl)-3-(4-isopropoxyphenyl)urea]
CCOc1ccc(NC(=O)Nc2cccc(Cl)c2)cc1 [Compound 389, 1-(3-chlorophenyl)-3-(4-ethoxyphenyl)urea]
CCOc1cccc(NC(=O)Nc2ccc(C)cc2)c1 [Compound 354, 1-(3-ethoxyphenyl)-3-(4-methylphenyl)urea]
N#Cc1ccc(NC(=O)Nc2ccc3c(c2)CCC3)cc1 [Compound 453, 1-(4-cyanophenyl)-3-(2,3-dihydro-1H-inden-5-yl)urea]
O=C(Nc1ccc(OC(F)F)cc1)Nc1ccccn1 [Compound 631, 1-[4-(difluoromethoxy)phenyl]-3-pyridin-2-ylurea]
Cc1ccc(NC(=O)Nc2cccc(F)c2)cc1F [Compound 429, 1-(3-fluoro-4-methylphenyl)-3-(3-fluorophenyl)urea]
Cc1ccccc1NC(=O)Nc1cccc(OC(F)F)c1 [Compound 377, 1-[3-(difluoromethoxy)phenyl]-3-(2-methylphenyl)urea]
CCN(CC)C(=O)c1ccccc1NC(=O)Nc1ccc(OC(F)F)cc1 [Compound 603]
CCOC(=O)c1cccc(NC(=O)Nc2ccc(CC)cc2)c1 [Compound 646, ethyl 3-({[(4-ethylphenyl)amino]carbonyl}amino)benzoate]
CCCc1ccc(NC(=O)Nc2ccc(OC(F)(F)F)cc2)cc1 [Compound 519, 1-(4-propylphenyl)-3-[4-(trifluoromethoxy)phenyl]urea]
CCCOc1ccc(NC(=O)Nc2ccc(C(C)=O)cc2)cc1 [Compound 417, 1-(4-acetylphenyl)-3-(4-propoxyphenyl)urea]
Cc1ccc(NC(=O)Nc2ccc(OCC#N)cc2)cc1 [Compound 465, 1-[4-(cyanomethoxy)phenyl]-3-(4-methylphenyl)urea]

Same assay, conditions: Table I; IC50 at CB1, GTP binding with 1 nM CP55,940; read-out: IC50

IC50, < 2000 nM:
CCc1ccc(NC(=O)Nc2ccc(OC(F)F)cc2)cc1 [Compound 5, N-[4-(difluoromethoxy)phenyl]-N′-(4-ethylphenyl)urea]
CCCCc1ccc(NC(=O)Nc2ccccc2)cc1 [Compound 46, N-(4-butylphenyl)-N′-phenylurea]
COc1cc(NC(=O)Nc2ccc(OC(F)F)cc2)ccc1OC(F)F [Compound 6, N-[4-(difluoromethoxy)-3-methoxyphenyl]-N′-[4-(difluoromethoxy)phenyl]urea]
CCc1ccc(NC(=O)Nc2cccc(F)c2)cc1 [Compound 58, N-(4-ethylphenyl)-N′-(3-fluorophenyl)urea]
CCCOc1ccc(NC(=O)Nc2ccc(CC)cc2)cc1 [Compound 24, N-(4-ethylphenyl)-N′-(4-propoxyphenyl)urea]
CC(C)c1ccc(NC(=O)Nc2ccccc2)cc1 [Compound 47, N-(4-isopropylphenyl)-N′-phenylurea]

Same assay, conditions: Table II; IC50 at CB1, GTP binding with 1 nM CP55,940; read-out: IC50

IC50, < 2000 nM:
CCCOc1ccc(NC(=O)Nc2cccc(Cl)c2)cc1 [Compound 244, N-(3-chlorophenyl)-N′-(4-propoxyphenyl)urea]
COC(=O)c1ccc(NC(=O)Nc2ccc(OC(F)F)cc2)cc1OC [Compound 134, methyl 4-[({[4-(difluoromethoxy)phenyl]amino}carbonyl)amino]-2-methoxybenzoate]
COc1cc(NC(=O)Nc2ccc(OC(F)F)cc2)ncn1 [Compound 79, N-[4-(difluorornethoxy)phenyl]-N′-(6-methoxypyrimidin-4-yl)urea]
CCCc1ccc(NC(=O)Nc2cccc(F)c2)cc1 [Compound 177, N-(3-fluorophenyl)-N′-(4-propylphenyl)urea]
O=C(Nc1ccc(OC(F)F)cc1)Nc1cccc(-c2cccnc2)c1 [Compound 63, N-[4-(difluoromethoxy)phenyl]-N′-(3-pyridin-3-ylphenyl)urea]
CCc1ccc(NC(=O)Nc2cccc(COC)c2)cc1 [Compound 238, N-(4-ethylphenyl)-N′-[3-(methoxymethyl)phenyl]urea]
O=C(Nc1ccc(OC(F)F)cc1)Nc1ccc2c(c1)OC(=O)C2 [Compound 135, N-[4-(difluoromethoxy)phenyl]-N′-(2-oxo-2,3-dihydro-1-benzofuran-6-yl)urea]
CCOc1ccc(NC(=O)Nc2ccccc2)cc1 [Compound 223, N-(4-ethoxyphenyl)-N′-phenylurea]
CCc1cccc(NC(=O)Nc2ccc(COC)cc2)c1 [Compound 239, N-(3-ethylphenyl)-N′-[4-(methoxymethyl)phenyl]urea]
CCc1ccc(NC(=O)Nc2cccc(CC)c2)cc1 [Compound 179, N-(3-ethylphenyl)-N′-(4-ethylphenyl)urea]
O=C(Nc1ccc(OC(F)F)cc1)Nc1cccc(Oc2ncccn2)c1 [Compound 108, N-[4-(difluoromethoxy)phenyl]-N′-[3-(pyrimidin-2-yloxy)phenyl]urea]
Cc1cc(C)cc(NC(=O)Nc2ccc(OC(F)F)cc2)c1 [Compound 89, N-[4-(difluoromethoxy)phenyl]-N′-(3,5-dimethylphenyl)urea]
CC(=O)c1ccc(NC(=O)Nc2cccc(OC(F)F)c2)cc1 [Compound 286, N-(4-acetylphenyl)-N′-[3-(difluoromethoxy)phenyl]urea]
Cc1nc2ccc(NC(=O)Nc3ccc(OC(F)F)cc3)cc2o1 [Compound 130, N-[4-(difluoromethoxy)phenyl]-N′-(2-methyl-1,3-benzoxazol-6-yl)urea]
CCc1ccc(NC(=O)Nc2cccc(-c3ccc(Cl)cn3)c2)cc1 [Compound 75, N-[3-(5-chloropyridin-2-yl)phenyl]-N′-(4-ethylphenyl)urea]
COc1ccc(NC(=O)Nc2ccc(Cl)cc2)cc1 [Compound 229, N-(4-chlorophenyl)-N′-(4-methoxyphenyl)urea]
CC(C)Oc1cccc(NC(=O)Nc2ccc(F)cc2)c1 [Compound 212, N-(4-fluorophenyl)-N′-(3-isopropoxyphenyl)urea]
CCc1ccc(NC(=O)Nc2cccc(Cl)c2)cc1 [Compound 180, N-(3-chlorophenyl)-N′-(4-ethylphenyl)urea]
Cc1cccc(NC(=O)Nc2ccc(N3CCOCC3)c(Cl)c2)c1 [Compound 162, N-(3-chloro-4-morpholin-4-ylphenyl)-N′-(3-methylphenyl)urea]
COc1cc(NC(=O)Nc2ccc(OC(F)F)cc2)cc(C(F)(F)F)c1 [Compound 87, N-[4-(difluoromethoxy)phenyl]-N′-[3-methoxy-5-(trifluoromethyl)phenyl]urea]
